Data taken from patent US10966426B2, “Herbicidal compositions comprising phenylpyrimidines” (BASF SE, priority 2016, dated 2021).
Several values for one entry are separate records, joined by “and”; a condition that tells them apart may be missing. Equal values may be shown once.

Legend:
Format in all cases: in vivo
Digitaria sanguinalis = test: greenhouse post-emergence treatment, DIGSA; conditions: 20 DAT; for % activity: DIGSA
Method: (§1) The culture containers used were plastic pots containing loamy sand with approximately 3.0% of humus as substrate. The seeds of the test plants were sown separately for each species.
(§2) To this end, the test plants were either sown directly, and grown in the same containers, or they were first grown separately as seedlings and transplanted into the test containers a few days prior to treatment.
(§3) Depending on the species, the plants were kept at 10-25° C. and 20-35° C., respectively.
(§4) The test period extended over 2 to 4 weeks. During this time, the plants were tended and their response to the individual treatments was evaluated.
(§5) Evaluation was carried out using a scale from 0 to 100. 100 means no emergence of the plants, or complete destruction of at least the above-ground parts, and 0 means no damage or normal course of growth. A good herbicidal activity is given at values of at least 70, and very good herbicidal activity is given at values of at least 85.
(§6) In the examples, the solvent used was water.
(§7) In the examples below, using the method of S. R. Colby (1967) “Calculating synergistic and antagonistic responses of herbicide combinations”, Weeds 15, p. […] E=X+Y−(X·Y/100) where X=effect in percent using herbicide A at an application rate a; • Y=effect in percent using herbicide B at application rate b; • E=expected effect (in %) of herbicide A+herbicide B at application rates a+b.

Bromus sterilis = test: greenhouse post-emergence treatment, BROST; conditions: 20 DAT; for % activity: BROST
Method: as §1, §2, §3, §4, §5, §6, §7

Brachiaria decumbens = test: greenhouse post-emergence treatment, BRADC; conditions: 20 DAT; for % activity: BRADC
Method: as §1
(§8) For the post-emergence treatment, the test plants were grown to a plant height of from 3 to 15 cm, depending on the plant habit, and only then treated with the active compounds which had been suspended or emulsified in water. To this end, the test plants were either sown directly, and grown in the same containers, or they were first grown separately as seedlings and transplanted into the test containers a few days prior to treatment.
as §3, §4, §5
(§9) The respective stated components A and B, and if appropriate, C were formulated as a 10% by weight strength emulsion concentrate and, with addition of the amount of solvent system, introduced into the spray liquor used for applying the active compound. In the examples, the solvent used was water.
(§10) In the examples below, using the method of S. R. Colby (1967) “Calculating synergistic and antagonistic responses of herbicide combinations”, Weeds 15, p. 22ff., the value E, which is expected if the activity of the individual active compounds is only additive, was calculated. E=X+Y−(X·Y/100) where X=effect in percent using herbicide A at an application rate a; • Y=effect in percent using herbicide B at application rate b; • E=expected effect (in %) of herbicide A+herbicide B at application rates a+b.

Alopecurus myosuroides = test: greenhouse post-emergence treatment, ALOMY; conditions: Alopecurus myosuroides, 480 h, 20 DAT, ALOMY
Method: as §1, §2, §3, §4, §5, §6, §7

Avena fatua = test: greenhouse post-emergence treatment, AVEFA; conditions: Avena fatua, 480 h, 20 DAT
Method: as §1, §2, §3, §4, §5, §6, §7

Setaria viridis = test: greenhouse post-emergence treatment, SETVI; conditions: 20 DAT; for % activity: SETVI
Method: as §1, §2, §3, §4, §5, §6, §7

Matricaria chamomilla = test: greenhouse post-emergence treatment, MATCH; conditions: MATCH, 20 DAT
Method: as §1, §8, §3, §4, §5, §9, §10

Lolium multiflorum = test: greenhouse post-emergence treatment, LOLMU; conditions: 20 DAT; for % activity: LOLMU
Method: as §1, §2, §3, §4, §5, §6, §7

Papaver rhoeas = test: greenhouse post-emergence treatment, PAPRH; conditions: 20 DAT
Method: as §1, §8, §3, §4, §5, §9, §10

Galium aparine = test: greenhouse post-emergence treatment, GALAP; conditions: GALAP, 20 DAT
Method: as §1, §8, §3, §4, §5, §9, §10

Ambrosia elatior = test: greenhouse post-emergence treatment, AMBEL; conditions: 20 DAT
Method: as §1, §8, §3, §4, §5, §9, §10

[1] = solo pyroxsulam (SC 30 g/l) 1.875 gai/ha
[2] = solo pyroxsulam (SC 30 g/l) 3.75 gai/ha
[3] = solo pyroxsulam (SC 30 g/l) 7.5 gai/ha

Structure (SMILES): COc1nc(C)nc(NC(=O)NS(=O)(=O)c2cc(I)ccc2C(=O)O)n1 [iodosulfuron]
- inhibition at 1.25 g/ha (Digitaria sanguinalis; Digitaria sanguinalis, 480 h, iodosulfuron solo 1.25 gai/ha): 0%
- inhibition at […] (Digitaria sanguinalis; Digitaria sanguinalis, 480 h, iodosulfuron solo 2.5 gai/ha): 20%
- inhibition at 5 g/ha (Digitaria sanguinalis; Digitaria sanguinalis, 480 h, iodosulfuron solo 5 gai/ha): 50%
- inhibition at 1.25 g/ha (Bromus sterilis; Bromus sterilis, 480 h, iodosulfuron solo 1.25 gai/ha): 0%
- inhibition at […] (Bromus sterilis; Bromus sterilis, 480 h, iodosulfuron solo 2.5 gai/ha): 0%
- inhibition at 5 g/ha (Bromus sterilis; Bromus sterilis, 480 h, iodosulfuron solo 5 gai/ha): 0%
- inhibition at […] (Brachiaria decumbens; Urochloa decumbens, 480 h, iodosulfuron solo 2.5 gai/ha): 20%
- inhibition at 5 g/ha (Brachiaria decumbens; Urochloa decumbens, 480 h, iodosulfuron solo 5 gai/ha): 30%

Structure (SMILES): CCc1cc(C)cc(CC)c1-c1c(OC(=O)C(C)(C)C)n2n(c1=O)CCOCC2 [pinoxaden]
- inhibition at […] (Alopecurus myosuroides; pinoxaden solo 7.5 gai/ha): 75%
- inhibition at 60 g/ha (Alopecurus myosuroides; pinoxaden solo 60 gai/ha): 94%
- pest or weed control at […] (Alopecurus myosuroides; solo, EC 50 g/l, 7.5 gai/ha): 48%
- pest or weed control at […] (Avena fatua; solo, EC 50 g/l, AVEFA, 7.5 gai/ha): 33%

Structure (SMILES): COc1cc(OC)n2nc(NS(=O)(=O)c3c(C(F)(F)F)ccnc3OC)nc2n1 [pyroxsulam]
- % activity (Setaria viridis; [1]): 75%
- % activity (Setaria viridis; pyroxsulam solo 1.875 gai/ha): 75%
- % activity (Matricaria chamomilla; [1]): 30%
- % activity (Matricaria chamomilla; [2]): 60%
- % activity (Matricaria chamomilla; solo pyroxsulam (SC 30 g/l) 15 gai/ha): 80%
- % activity (Matricaria chamomilla; pyroxsulam solo 1.875 gai/ha): 30%
- % activity (Matricaria chamomilla; pyroxsulam solo 3.75 gai/ha): 60%
- % activity (Matricaria chamomilla; pyroxsulam solo 15 gai/ha): 80%
- % activity (Digitaria sanguinalis; [3]): 80%
- % activity (Digitaria sanguinalis; pyroxsulam solo 1.875 gai/ha): 65%
- % activity (Digitaria sanguinalis; pyroxsulam solo 3.75 gai/ha): 75%
- % activity (Digitaria sanguinalis; pyroxsulam solo 7.5 gai/ha): 80%
- % activity (Bromus sterilis; [1]): 60%
- % activity (Bromus sterilis; pyroxsulam solo 1.875 gai/ha): 60%
- % activity (Bromus sterilis; pyroxsulam solo 3.75 gai/ha): 70%
- % activity (Bromus sterilis; pyroxsulam solo 7.5 gai/ha): 75%
- % activity (Lolium multiflorum; pyroxsulam solo 1.875 gai/ha): 60% and 80%
- % activity (Lolium multiflorum; pyroxsulam solo 3.75 gai/ha): 65%
- % activity (Lolium multiflorum; pyroxsulam solo 7.5 gai/ha): 80%
- % activity (Papaver rhoeas; PAPRH, solo pyroxsulam (SC 30 g/l) 1.875 gai/ha): 0%
- % activity (Papaver rhoeas; PAPRH, solo pyroxsulam (SC 30 g/l) 3.75 gai/ha): 0%
- % activity (Papaver rhoeas; PAPRH, solo pyroxsulam (SC 30 g/l) 7.5 gai/ha): 30%
- % activity (Papaver rhoeas; PAPRH, solo pyroxsulam (SC 30 g/l) 15 gai/ha): 70%
- % activity (Papaver rhoeas; pyroxsulam solo 1.875 gai/ha, PAPRH): 0%
- % activity (Papaver rhoeas; pyroxsulam solo 3.75 gai/ha, PAPRH): 0%
- % activity (Papaver rhoeas; pyroxsulam solo 7.5 gai/ha, PAPRH): 30%
- % activity (Papaver rhoeas; pyroxsulam solo 15 gai/ha, PAPRH): 70%
- % activity (Galium aparine; [1]): 60%
- % activity (Galium aparine; [2]): 65%
- % activity (Galium aparine; [3]): 75%
- % activity (Galium aparine; pyroxsulam solo 1.875 gai/ha): 60%
- % activity (Galium aparine; pyroxsulam solo 3.75 gai/ha): 65%
- % activity (Galium aparine; pyroxsulam solo 7.5 gai/ha): 75%
- % activity (Galium aparine; pyroxsulam solo 15 gai/ha): 90%
- % activity (Ambrosia elatior; pyroxsulam solo 1.875 gai/ha, AMBEL): 70%
- % activity (Brachiaria decumbens; [1]): 20%
- % activity (Brachiaria decumbens; pyroxsulam solo 1.875 gai/ha): 20%
- % activity (Brachiaria decumbens; pyroxsulam solo 3.75 gai/ha): 75%

Structure (SMILES): CCS(=O)(=O)c1nc2ccccn2c1S(=O)(=O)NC(=O)Nc1nc(OC)cc(OC)n1 [sulfosulfuron]
- inhibition at […] (Setaria viridis; Setaria viridis, 480 h, sulfosulfuron solo 1.5 gai/ha): 50%
- inhibition at 6 g/ha (Setaria viridis; Setaria viridis, 480 h, sulfosulfuron solo 6 gai/ha): 65%
- inhibition at 12 g/ha (Setaria viridis; Setaria viridis, 480 h, sulfosulfuron solo 12 gai/ha): 75%
- inhibition at […] (Digitaria sanguinalis; Digitaria sanguinalis, 480 h, sulfosulfuron solo 1.5 gai/ha): 0%
- inhibition at 3 g/ha (Digitaria sanguinalis; Digitaria sanguinalis, 480 h, sulfosulfuron solo 3 gai/ha): 20%
- inhibition at 12 g/ha (Digitaria sanguinalis; Digitaria sanguinalis, 480 h, sulfosulfuron solo 12 gai/ha): 65%
- inhibition at […] (Bromus sterilis; Bromus sterilis, 480 h, sulfosulfuron solo 1.5 gai/ha): 0%
- inhibition at 3 g/ha (Bromus sterilis; Bromus sterilis, 480 h, sulfosulfuron solo 3 gai/ha): 50%
- inhibition at 12 g/ha (Bromus sterilis; Bromus sterilis, 480 h, sulfosulfuron solo 12 gai/ha): 70%
- inhibition at […] (Lolium multiflorum; Lolium multiflorum, 480 h, sulfosulfuron solo 1.5 gai/ha): 0%
- inhibition at 3 g/ha (Lolium multiflorum; Lolium multiflorum, 480 h, sulfosulfuron solo 3 gai/ha): 0%
- inhibition at 6 g/ha (Lolium multiflorum; Lolium multiflorum, 480 h, sulfosulfuron solo 6 gai/ha): 10%
- inhibition at 12 g/ha (Lolium multiflorum; Lolium multiflorum, 480 h, sulfosulfuron solo 12 gai/ha): 35%
- inhibition at […] (Avena fatua; sulfosulfuron solo 1.5 gai/ha): 0%
- inhibition at 3 g/ha (Avena fatua; sulfosulfuron solo 3 gai/ha): 0%
- inhibition at […] (Papaver rhoeas; Papaver rhoeas, 480 h, sulfosulfuron solo 1.5 gai/ha): 25%
- inhibition at 3 g/ha (Papaver rhoeas; Papaver rhoeas, 480 h, sulfosulfuron solo 3 gai/ha): 80%
- pest or weed control at […] (Papaver rhoeas; Papaver rhoeas, 480 h, PAPRH, solo sulfosulfuron (WG 80%) 1.5 gai/ha): 25%
- pest or weed control at […] (Galium aparine; Galium aparine, 480 h, solo sulfosulfuron (WG 80%) 1.5 gai/ha): 65%
- pest or weed control at 3 g/ha (Galium aparine; Galium aparine, 480 h, solo sulfosulfuron (WG 80%) 3 gai/ha): 85%
- inhibition at […] (Ambrosia elatior; Ambrosia artemisiifolia, 480 h, sulfosulfuron solo 1.5 gai/ha): 70%
- inhibition at […] (Brachiaria decumbens; Urochloa decumbens, 480 h, sulfosulfuron solo 1.5 gai/ha): 20%
- inhibition at 12 g/ha (Brachiaria decumbens; Urochloa decumbens, 480 h, sulfosulfuron solo 12 gai/ha): 80%
